Test results published in patent US9061984B2 (University of Louisville Research Foundation, Inc., priority 2008, dated 2015).
In brackets after ≈: the same amount, converted by molar mass. Where two headings read alike, the source gives them in different places.

What was measured:
[1] = system: Trypanosoma cruzi (Tulahuen C4); experiment: In vitro anti-T. cruzi activity (β-galactosidase CPRG colorimetric assay in VERO monolayer); assay type: cell-based; conditions: for inhibition at 10 µg/mL / IC50: Trypanosoma cruzi, TULAHUEN, Vero; for inhibition at 10 µg/mL: 120 h, 10 μg/mL of each compound, 120 hours, read-out: T. cruzi Inhib. (%); for Selectivity Index Lab B: IC50, VERO/IC50, T. cruzi
[2] = system: peritoneal macrophages; experiment: Toxicity to peritoneal macrophages (Trypan Blue count); assay type: cell-based, BALB/C mouse; conditions: Mus musculus, Peritoneal macrophage, 48 h; Table 7; read-out: IC50 Macrophage
Experimental: (§1) Peritoneal macrophages were prepared as follows. Non-inflammatory macrophages (10^6) were collected from each BALB/C mouse. The cells adhered at 37° C. after 2 h under 5% CO2 in a CO2 incubator. The plates were then rinsed two to three times with 0.5 mL of RPMI+buffer MOPS without fetal calf serum to eliminate non-adhering cells. The supernatant on the plates was replaced by fresh medium (RPMI+glutamine+FCS+antibiotics), 0.5 mL of medium per well. To determine the toxicity of the compounds to macrophages, dilutions of compounds were added on a part of the macrophages prepared above. […] The medium was then removed and 1 μL of sterile Trypan Blue was added. Cover glasses N° 1 were left where cells were plated and then the number of macrophages in a microscope was determined with a haemocytometer. All experiments were performed in triplicate.

[3] = system: VERO cells; experiment: Cytotoxicity on VERO cells (MTT), anti-T. cruzi study; conditions: Chlorocebus sabaeus, Vero, read-out: IC50 VERO, Table 3
[4] = as above; conditions: African green monkey, VERO cells
[5] = system: axenic amastigotes of L. amazonensis (strain MHOM/BR/76/LTB-012); experiment: microbe, parasite or virus in culture; conditions: Leishmania amazonensis
[6] = system: VERO cells; experiment: Cell growth inhibition bioassay (sulforhodamine B); assay type: cell-based, African Green Monkey; conditions: Chlorocebus sabaeus, Vero; 48 h, SRB; read-out: GI50 in indicated cell line: VERO
Experimental: (§2) The cytotoxicity of compounds was assayed as follows. […] Appropriate solvent controls were tested for comparison. The percent inhibition of cell growth relative to the control was evaluated colorimetrically using a sulforhodamine B dye by comparison to the control. The calorimetric procedure followed that published in Skehan et al., J. Nat. Cancer Inst., […], pp. 1107-1112 (1990) and Boyd & Paull, Drug Dev. Res., Vol. 34, pp. 91-109 (1995). […] The cell lines are: 3T3 cells are BALB/3T3 clone A31 embryonic mouse fibroblast cells; H460 cells are human large cell lung cancer cells; DU145 cells are human prostate carcinoma cells; MCF-7 cells are human breast adenocarcinoma cells; M-14 cells are human melanoma cells; HT-29 cells are human colon adenocarcinoma cells; PC3 cells are human prostate adenocarcinoma cells; K562 cells are human chronic myelogenous leukemia cells; and VERO cells are African Green Monkey kidney epithelial cells.

[7] = system: M. tuberculosis H37Rv; experiment: Conventional aerobic (MABA) culture assay, luminescence MIC; assay type: cell-based, Mycobacterium tuberculosis; conditions: Mycobacterium tuberculosis, 168 h; aerobic, 7 days, H37Rv
[8] = system: 3T3 cells; experiment: Cell growth inhibition bioassay (sulforhodamine B); assay type: cell-based, mouse; conditions: Mus musculus, NIH3T3; 48 h, SRB; read-out: GI50 in indicated cell line: 3T3
Experimental: as §2

[9] = system: M-14 cells; experiment: Cell growth inhibition bioassay (sulforhodamine B); assay type: cell-based, human; conditions: Homo sapiens, M14; 48 h, SRB; read-out: GI50 in indicated cell line: M-14
Experimental: as §2

[10] = system: DU145 cells; experiment: Cell growth inhibition bioassay (sulforhodamine B); assay type: cell-based, human; conditions: Homo sapiens, DU-145; 48 h, SRB; read-out: GI50 in indicated cell line: DU145
Experimental: as §2

[11] = system: MCF-7 cells; experiment: Cell growth inhibition bioassay (sulforhodamine B); assay type: cell-based, human; conditions: Homo sapiens, MCF7; 48 h, SRB; read-out: GI50 in indicated cell line: MCF-7
Experimental: as §2

[12] = system: H460 cells; experiment: Cell growth inhibition bioassay (sulforhodamine B); assay type: cell-based, human; conditions: Homo sapiens, NCI-H460; 48 h, SRB; read-out: GI50 in indicated cell line: H460
Experimental: as §2

[13] = system: K562 cells; experiment: Cell growth inhibition bioassay (sulforhodamine B); assay type: cell-based, human; conditions: Homo sapiens, K562; 48 h, SRB; read-out: GI50 in indicated cell line: K562
Experimental: as §2

[14] = system: HT-29 cells; experiment: Cell growth inhibition bioassay (sulforhodamine B); assay type: cell-based, human; conditions: Homo sapiens, HT-29; 48 h, SRB; read-out: GI50 in indicated cell line: HT-29
Experimental: as §2

[15] = Toxicity to peritoneal macrophages (Trypan Blue count); assay type: cell-based, BALB/C mouse; conditions: BALB/C, mouse, Cytotoxicity Macrophages IC50
Experimental: as §1

[16] = system: axenic amastigotes of L. amazonensis (strain MHOM/BR/76/LTB-012); conditions: Table 8b
[17] = Table 2, read-out: IC50 - T. cruzi
[18] = Table 3, read-out: IC50 T. cruzi
[19] = IC50 - VERO Cytotoxicity, Table 2
[20] = 72 h, read-out: IC50 L. amazonensis
[21] = Lab B, read-out: T. cruzi IC50 Lab B

C=CCOc1cc(OC)c(C(=O)/C=C/c2ccc(F)cc2)c(OCC=C)c1 [Compound I-23, (2E)-3-(4-Fluorophenyl)-1-[2-methoxy-4,6-bis(2-propenyloxy)phenyl]-2-propen-1-one]
inhibition at 10 µg/mL [1]: 66.5% | IC50 [1, 17]: 5.27 µg/mL | IC50 [1, 18]: 14.3 µM | IC50 [2]: 13.8 µM | IC50 [3]: 13.6 µM | IC50 [4, 19]: 5 µg/mL (≈ 13.6 µM) | IC50 [5, 20]: 9.5 µM

C=CCOc1cc(OC)c(C(=O)/C=C/c2ccc(C)cc2)c(OCC=C)c1 [Compound I-24, (2E)-1-[2-Methoxy-4,6-bis(2-propenyloxy)phenyl]-3-(4-methylphenyl)-2-propen-1-one]
inhibition at 10 µg/mL [1]: 60.2% | IC50 [1, 17]: 6.28 µg/mL | IC50 [1, 18]: 17.2 µM | IC50 [3]: 211 µM | IC50 [4, 19]: 77 µg/mL (≈ 211 µM) | IC50 [5, 20]: 79.8 µM

C=CCOc1cc(OC)c(C(=O)/C=C/c2ccc(Cl)cc2)c(OCC=C)c1 [Compound I-14, (2E)-3-(4-Chlorophenyl)-1-[2-methoxy-4,6-bis(2-propenyloxy)phenyl]-2-propen-1-one]
inhibition at 10 µg/mL [1]: 66.3% | IC50 [1, 17]: 3.3 µg/mL | IC50 [1, 18]: 8.6 µM | IC50 [2]: 13 µM | IC50 [3]: 10.4 µM | IC50 [4, 19]: 4 µg/mL (≈ 10.4 µM) | IC50 [5, 20]: 9.4 µM

C=CCOc1cc(OC)c(C(=O)/C=C/c2ccc(O)cc2)c(OCC=C)c1 [Compound I-09, (2E)-1-[2-Methoxy-4,6-bis(2-propenyloxy)phenyl]-3-(4-hydroxyphenyl)-2-propen-1-one]
inhibition at 10 µg/mL [1]: 52.6% | IC50 [1, 17]: 7.44 µg/mL | IC50 [1, 18]: 20.3 µM | IC50 [3]: 76.4 µM | IC50 [4, 19]: 28 µg/mL (≈ 76.4 µM) | IC50 [5, 20]: 85.2 µM

C=CCOc1cc(OC)c(C(=O)/C=C/c2cc(OCC=C)c(Br)c(OCC=C)c2)c(OCC=C)c1 [Compound I-25, (2E)-3-(3,5-Bis(2-propenyloxy)-4-bromophenyl)-1-[2-methoxy-4,6-bis(2-propenyloxy)phenyl]-2-propen-1-one]
inhibition at 10 µg/mL [1]: 51.2% | IC50 [1, 17]: 3.73 µg/mL | IC50 [1, 18]: 6.9 µM | IC50 [3]: 96.3 µM | IC50 [4, 19]: 52 µg/mL (≈ 96 µM) | IC50 [5, 20]: > 180 µM

CC1CS(=O)(=O)CCN1/N=C/c1ccc([N+](=O)[O-])o1 (centres unmarked) [Nifurtimox, reference compound]
IC50 [1, 18]: 0.52 µM | IC50 [3]: 80.1 µM

COc1ccc(/C=N\Nc2ncnc3sc4c(c23)CCCC4)c(OC)c1 [II-13]
Selectivity Index Lab B ([1]; Lab B): 1.8 | IC50 [1, 21]: 6.8 µg/mL | GI50 [6]: 17.7 µg/mL (≈ 48 µM) | MIC [7]: > 100 µg/mL | GI50 [8]: 7.3 µg/mL (≈ 19.8 µM) | GI50 [9]: 34.8 µg/mL (≈ 94.4 µM) | GI50 [10]: 7.4 µg/mL (≈ 20.1 µM) | GI50 [11]: 7.8 µg/mL (≈ 21.2 µM) | GI50 [12]: 10.9 µg/mL (≈ 29.6 µM) | GI50 [13]: 2.9 µg/mL (≈ 7.87 µM) | GI50 [14]: 7.4 µg/mL (≈ 20.1 µM) | IC50 at 48 h [15]: 53 µM | IC50 ([4]; Cytotoxicity VERO Lab B, Lab B): 12 µg/mL (≈ 32.6 µM) | IC50 ([5]; read-out: L. amazonensis IC50): 12.2 µM | Selectivity Index [16]: 4.3

C=CCOc1cc(OC)c(C(=O)/C=C/c2ccco2)c(OCC=C)c1 [Compound I-28, (2E)-3-(2-furanyl)-1-[2-methoxy-4,6-bis(2-propenyloxy)phenyl]-2-propen-1-one]
inhibition at 10 µg/mL [1]: 59.1% | IC50 [1, 17]: 4.14 µg/mL | IC50 [1, 18]: 12.2 µM | IC50 [3]: 191 µM | IC50 [4, 19]: 65 µg/mL (≈ 191 µM) | IC50 [5, 20]: > 300 µM

C=CCOc1cc(OC)c(C(=O)/C=C/c2ccc(C(F)(F)F)cc2)c(OCC=C)c1 [Compound I-12, (2E)-1-[2-Methoxy-4,6-bis(2-propenyloxy)phenyl]-3-[4-(trifluoromethyl)phenyl]-2-propen-1-one]
inhibition at 10 µg/mL [1]: 64.2% | IC50 [1, 17]: 6.53 µg/mL | IC50 [1, 18]: 15.6 µM | IC50 [3]: 7.2 µM | IC50 [4, 19]: 3 µg/mL (≈ 7.17 µM) | IC50 [5, 20]: 128 µM

C(=N/Nc1ncnc2sc3c(c12)CCCC3)/c1ccc2c(c1)OCO2 [II-12]
Selectivity Index Lab B ([1]; Lab B): 0.7 | IC50 ([1]; Lab A, read-out: T. cruzi IC50 Lab A): 2.3 µg/mL | IC50 [1, 21]: 8 µg/mL | GI50 [6]: > 93.8 µg/mL | MIC [7]: > 100 µg/mL | GI50 [8]: > 93.8 µg/mL | GI50 [9]: > 93.8 µg/mL | GI50 [10]: > 93.8 µg/mL | GI50 [11]: 41.4 µg/mL (≈ 117 µM) | GI50 [12]: > 93.8 µg/mL | GI50 [13]: > 93.8 µg/mL | GI50 [14]: > 93.8 µg/mL | IC50 at 48 h [15]: 5.7 µM | IC50 ([4]; Cytotoxicity VERO Lab B, Lab B): 6 µg/mL (≈ 17 µM) | IC50 ([5]; read-out: L. amazonensis IC50): 10.4 µM | Selectivity Index [16]: 0.6

C=CCOc1cc(OC)c(C(=O)/C=C/c2ccc(OC)cc2OC)c(OCC=C)c1 [Compound I-17, (2E)-3-(2,4-Dimethoxyphenyl)-1-[2-methoxy-4,6-bis(2-propenyloxy)phenyl]-2-propen-1-one]
inhibition at 10 µg/mL [1]: 67.8% | IC50 [1, 17]: 5.38 µg/mL | IC50 [1, 18]: 13.1 µM | IC50 [3]: 92.6 µM | IC50 [4, 19]: 38 µg/mL (≈ 92.6 µM) | IC50 [5, 20]: 134 µM

C=CCOc1cc(OC)c(C(=O)/C=C/c2ccncc2)c(OCC=C)c1 [Compound I-26, (2E)-1-[2-Methoxy-4,6-bis(2-propenyloxy)phenyl]-3-(4-pyridinyl)-2-propen-1-one]
inhibition at 10 µg/mL [1]: 73.6% | IC50 [1, 17]: 0.52 µg/mL | IC50 [1, 18]: 1.5 µM | IC50 [3]: 2.8 µM | IC50 [4, 19]: 1 µg/mL (≈ 2.85 µM) | IC50 [5, 20]: 0.6 µM

C(=N/Nc1ncnc2sc3c(c12)CCCC3)/c1cccc2ccccc12 [II-02]
Selectivity Index Lab B ([1]; Lab B): 0.2 | IC50 [1, 21]: 4.7 µg/mL | GI50 [6]: 4.3 µg/mL (≈ 12 µM) | MIC [7]: > 100 µg/mL | GI50 [8]: 6 µg/mL (≈ 16.7 µM) | GI50 [9]: 6.6 µg/mL (≈ 18.4 µM) | GI50 [10]: 8.6 µg/mL (≈ 24 µM) | GI50 [11]: 2.3 µg/mL (≈ 6.42 µM) | GI50 [12]: 7.1 µg/mL (≈ 19.8 µM) | GI50 [13]: 1.7 µg/mL (≈ 4.74 µM) | GI50 [14]: 2.2 µg/mL (≈ 6.14 µM) | IC50 at 48 h [15]: 6 µM | IC50 ([4]; Cytotoxicity VERO Lab B, Lab B): 1 µg/mL (≈ 2.79 µM) | IC50 ([5]; read-out: L. amazonensis IC50): 4.6 µM | Selectivity Index [16]: 1.3
